Test results taken from ChEMBL document CHEMBL4020759, “Sulfoximines as ATR inhibitors: Analogs of VE-821” (2017).
Activity calls are given as the source filed them. The calls are words filed in the database; no cut-off is given here.

Legend:
[1] = target: Serine-protein kinase ATM (Homo sapiens) (UniProt Q13315); test: Inhibition of ATM in human U2OS cells assessed as reduction in etoposide-induced Chk-2 phosphorylation at Thr68 residue at 10 uM preincubated for 1 hr followed by etoposide challenge measured after 20 mins by Western blot analysis; type: cell-based
[2] = target: Serine/threonine-protein kinase ATR (Homo sapiens) (UniProt Q13535); test: Inhibition of ATR in human U2OS cells assessed as reduction in etoposide-induced Chk-1 phosphorylation at Ser345 residue at 10 uM preincubated for 1 hr followed by etoposide challenge measured after 20 mins by Western blot analysis; type: cell-based
[3] = target: Serine/threonine-protein kinase ATR (Homo sapiens) (UniProt Q13535); test: Inhibition of ATR in human U2OS cells assessed as reduction in hydroxyurea-induced Chk-1 phosphorylation at Ser345 residue at 10 uM preincubated for 1 hr followed by hydroxyurea challenge measured after 1 hr by Western blot analysis; type: cell-based
[4] = target: Serine-protein kinase ATM (Homo sapiens) (UniProt Q13315); test: Inhibition of ATM in human U2OS cells assessed as reduction in hydroxyurea-induced Chk-2 phosphorylation at Thr68 residue at 10 uM preincubated for 1 hr followed by hydroxyurea challenge measured after 1 hr by Western blot analysis; type: cell-based
[5] = target: Serine-protein kinase ATM (Homo sapiens) (UniProt Q13315); test: Inhibition of ATM in human U2OS cells assessed as reduction in hydroxyurea-induced H2AX phosphorylation at Ser139 residue at 3 to 10 uM preincubated for 1 hr followed by hydroxyurea challenge measured after 2 hrs by Western blot analysis; type: cell-based
[6] = target: Serine/threonine-protein kinase ATR (Homo sapiens) (UniProt Q13535); test: Inhibition of ATR in human Ramos cells assessed as reduction in […] at 10 uM after 48 hrs by Western blot analysis; type: cell-based
[7] = system: Ramos; test: Induction of apoptosis in human Ramos cells assessed as increase PARP-1 cleavage at 10 uM after 48 hrs by Western blot analysis; type: functional, cell-based
[8] = target: Serine/threonine-protein kinase ATR (Homo sapiens) (UniProt Q13535); test: Inhibition of ATR in human U2OS cells assessed as reduction in hydroxyurea-induced Chk-1 phosphorylation at Ser345 residue by measuring ratio of GAPDH level to phosphorylated Chk-1 level at 3 uM preincubated for 1 hr followed by hydroxyurea challenge measured after 2 hrs by Western blot analysis; type: cell-based
[9] = target: Serine/threonine-protein kinase ATR (Homo sapiens) (UniProt Q13535); test: Inhibition of ATR in human U2OS cells assessed as reduction in hydroxyurea-induced Chk-1 phosphorylation at Ser345 residue by measuring ratio of GAPDH level to phosphorylated Chk-1 level at 10 uM preincubated for 1 hr followed by hydroxyurea challenge measured after 2 hrs by Western blot analysis; type: cell-based
[10] = target: Serine/threonine-protein kinase ATR (Homo sapiens) (UniProt Q13535); test: Inhibition of ATR in human U2OS cells assessed as reduction in hydroxyurea-induced Chk-1 phosphorylation at Ser345 residue preincubated for 1 hr followed by hydroxyurea challenge measured after 2 hrs by Western blot analysis; type: cell-based
[11] = target: Serine/threonine-protein kinase ATR (Homo sapiens) (UniProt Q13535); test: Inhibition of ATR in human U2OS cells assessed as reduction in hydroxyurea-induced H2AX phosphorylation at Ser139 residue at 3 to 10 uM preincubated for 1 hr followed by hydroxyurea challenge measured after 2 hrs by Western blot analysis; type: cell-based

Sequence of Serine-protein kinase ATM (Homo sapiens) (Q13315 whole entry): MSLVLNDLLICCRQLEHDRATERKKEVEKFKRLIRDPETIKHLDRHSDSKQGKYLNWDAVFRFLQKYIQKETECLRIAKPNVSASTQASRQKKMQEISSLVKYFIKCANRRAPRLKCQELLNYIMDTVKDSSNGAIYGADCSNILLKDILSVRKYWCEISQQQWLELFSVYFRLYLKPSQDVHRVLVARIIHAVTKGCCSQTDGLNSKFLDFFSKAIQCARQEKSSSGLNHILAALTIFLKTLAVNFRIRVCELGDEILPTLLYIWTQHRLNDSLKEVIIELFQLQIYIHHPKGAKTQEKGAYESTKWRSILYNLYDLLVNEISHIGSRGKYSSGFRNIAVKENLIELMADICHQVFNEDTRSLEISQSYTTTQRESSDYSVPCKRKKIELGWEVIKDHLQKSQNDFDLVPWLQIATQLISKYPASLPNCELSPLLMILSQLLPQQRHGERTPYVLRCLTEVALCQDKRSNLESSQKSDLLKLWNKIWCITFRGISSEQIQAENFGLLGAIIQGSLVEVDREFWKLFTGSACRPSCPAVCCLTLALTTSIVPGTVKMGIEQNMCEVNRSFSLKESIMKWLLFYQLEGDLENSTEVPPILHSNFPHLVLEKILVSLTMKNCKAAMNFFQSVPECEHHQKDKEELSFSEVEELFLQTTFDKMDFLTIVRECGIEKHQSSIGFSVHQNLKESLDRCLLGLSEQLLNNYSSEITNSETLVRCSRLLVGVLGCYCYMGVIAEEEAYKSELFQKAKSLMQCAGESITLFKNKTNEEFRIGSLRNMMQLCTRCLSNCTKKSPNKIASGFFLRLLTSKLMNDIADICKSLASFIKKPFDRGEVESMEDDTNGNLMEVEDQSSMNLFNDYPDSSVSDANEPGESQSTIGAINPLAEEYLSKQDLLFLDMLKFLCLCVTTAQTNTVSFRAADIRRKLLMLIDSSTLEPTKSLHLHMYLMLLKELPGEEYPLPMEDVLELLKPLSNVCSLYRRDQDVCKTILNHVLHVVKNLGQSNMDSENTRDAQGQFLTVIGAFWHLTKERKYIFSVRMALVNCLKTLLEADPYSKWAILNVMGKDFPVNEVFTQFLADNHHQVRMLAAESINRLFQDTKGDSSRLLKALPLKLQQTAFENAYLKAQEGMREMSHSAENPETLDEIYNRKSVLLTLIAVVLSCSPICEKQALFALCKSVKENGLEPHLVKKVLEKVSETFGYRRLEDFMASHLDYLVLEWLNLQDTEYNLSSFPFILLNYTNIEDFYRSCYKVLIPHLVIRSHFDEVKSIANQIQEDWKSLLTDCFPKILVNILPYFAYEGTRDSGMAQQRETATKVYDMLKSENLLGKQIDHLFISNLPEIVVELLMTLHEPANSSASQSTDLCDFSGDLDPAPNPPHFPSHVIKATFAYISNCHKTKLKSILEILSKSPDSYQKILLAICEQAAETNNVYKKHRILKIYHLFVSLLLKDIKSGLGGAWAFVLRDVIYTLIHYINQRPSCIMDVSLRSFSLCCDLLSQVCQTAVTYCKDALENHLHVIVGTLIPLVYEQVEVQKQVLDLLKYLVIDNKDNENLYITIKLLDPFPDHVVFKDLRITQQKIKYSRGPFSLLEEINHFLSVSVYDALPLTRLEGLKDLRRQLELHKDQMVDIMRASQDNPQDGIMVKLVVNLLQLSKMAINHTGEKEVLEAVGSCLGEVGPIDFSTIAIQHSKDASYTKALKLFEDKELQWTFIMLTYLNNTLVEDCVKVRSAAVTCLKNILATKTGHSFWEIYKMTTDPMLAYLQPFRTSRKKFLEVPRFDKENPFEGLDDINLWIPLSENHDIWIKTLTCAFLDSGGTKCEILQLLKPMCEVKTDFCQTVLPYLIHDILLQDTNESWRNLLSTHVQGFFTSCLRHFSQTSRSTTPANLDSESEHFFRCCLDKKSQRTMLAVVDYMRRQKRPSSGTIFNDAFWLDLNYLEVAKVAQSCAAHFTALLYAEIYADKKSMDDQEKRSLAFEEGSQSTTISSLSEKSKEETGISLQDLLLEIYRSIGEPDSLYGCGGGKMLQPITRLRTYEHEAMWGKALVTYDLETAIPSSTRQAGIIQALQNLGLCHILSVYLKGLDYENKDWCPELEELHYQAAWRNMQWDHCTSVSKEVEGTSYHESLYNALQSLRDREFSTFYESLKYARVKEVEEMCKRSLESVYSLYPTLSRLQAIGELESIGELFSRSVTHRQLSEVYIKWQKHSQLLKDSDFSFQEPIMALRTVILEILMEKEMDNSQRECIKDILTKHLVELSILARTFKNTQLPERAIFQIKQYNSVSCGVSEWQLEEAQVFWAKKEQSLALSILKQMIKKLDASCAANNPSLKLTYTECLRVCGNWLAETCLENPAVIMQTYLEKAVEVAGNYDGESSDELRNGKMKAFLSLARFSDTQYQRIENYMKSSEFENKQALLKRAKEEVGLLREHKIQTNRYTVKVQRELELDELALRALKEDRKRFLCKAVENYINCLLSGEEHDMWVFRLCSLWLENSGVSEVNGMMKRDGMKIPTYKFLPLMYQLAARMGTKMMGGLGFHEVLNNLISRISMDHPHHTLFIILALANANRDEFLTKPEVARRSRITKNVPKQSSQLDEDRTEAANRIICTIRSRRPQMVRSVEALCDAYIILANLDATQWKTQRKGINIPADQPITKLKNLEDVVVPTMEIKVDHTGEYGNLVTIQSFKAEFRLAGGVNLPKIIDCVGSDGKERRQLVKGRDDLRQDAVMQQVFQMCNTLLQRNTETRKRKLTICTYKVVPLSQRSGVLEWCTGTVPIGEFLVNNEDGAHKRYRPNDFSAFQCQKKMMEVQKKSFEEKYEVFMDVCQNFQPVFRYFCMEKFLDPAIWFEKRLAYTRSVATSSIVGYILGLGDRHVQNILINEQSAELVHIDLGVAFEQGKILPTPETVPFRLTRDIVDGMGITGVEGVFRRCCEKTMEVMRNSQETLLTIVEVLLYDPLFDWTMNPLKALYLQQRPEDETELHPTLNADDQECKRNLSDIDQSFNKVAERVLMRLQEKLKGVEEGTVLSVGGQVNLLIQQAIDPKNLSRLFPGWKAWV

Structure (SMILES) | inhibition [1] | inhibition [2] | inhibition [3] | inhibition [4] | inhibition [5] | inhibition [6] | Activity [7] | Ratio [8] | Ratio [9] | inhibition [10] | inhibition [11]
CS(=N)(=O)c1ccc(-c2cnc(N)c(C(=O)Nc3ccccc3)n2)cc1 (centres undefined) | inactive | Active | Active | inactive | inactive | Active | Active | 28.3 | 21.1 | Dose-dependent effect | Dose-dependent effect
CS(=O)(=O)c1ccc(-c2cnc(N)c(C(=O)Nc3ccccc3)n2)cc1 | inactive | Active | – | – | inactive | Active | Active | 13 | 16.3 | – | –
CN=S(C)(=O)c1ccc(-c2cnc(N)c(C(=O)Nc3ccccc3)n2)cc1 (centres undefined) | inactive | Active | Active | inactive | inactive | Active | Active | 46.1 | 36.4 | Dose-dependent effect | Dose-dependent effect
